The values below come from patent US20230340011A1 (Asteroid Therapeutics, priority 2022, published 2023).

One experiment has as its target SREBP-2 (Homo sapiens (Human), UniProt Q12772). Description: In vitro assay SREBP-2: PathHunter U2OS SREBP-2 Nuclear Translocation Cell Line, U18666A-stimulated. The following applies: PathHunter U2OS SREBP-2 nuclear translocation cells, U18666A 10 μM, overnight (16 hours). In kind it is cell-based.
The target in another experiment is LXRβ (Homo sapiens (Human), UniProt P55055). Description: In vitro assay LXRβ: PathHunter NHR CHO cells, LXRβ / Steroid Receptor Co-activator Peptide enzyme fragment complementation. The class given is cell-based. The note with it: PathHunter NHR CHO cells, full-length human LXRβ and SRCP, chemiluminescent signal; read-out: LXRβ PPI. In a few lines: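 Co-activator recruitment measured by chemiluminescence after signal generation. The CHO line carries full-length human LXRβ tagged with ProLink and an SRCP–enzyme acceptor fusion in the nucleus; cells sat overnight at 37° C before testing, in charcoal-dextran filtered serum medium with 1% final vehicle.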
LXRβ, sequence (P55055 whole entry, the tested form may be a part): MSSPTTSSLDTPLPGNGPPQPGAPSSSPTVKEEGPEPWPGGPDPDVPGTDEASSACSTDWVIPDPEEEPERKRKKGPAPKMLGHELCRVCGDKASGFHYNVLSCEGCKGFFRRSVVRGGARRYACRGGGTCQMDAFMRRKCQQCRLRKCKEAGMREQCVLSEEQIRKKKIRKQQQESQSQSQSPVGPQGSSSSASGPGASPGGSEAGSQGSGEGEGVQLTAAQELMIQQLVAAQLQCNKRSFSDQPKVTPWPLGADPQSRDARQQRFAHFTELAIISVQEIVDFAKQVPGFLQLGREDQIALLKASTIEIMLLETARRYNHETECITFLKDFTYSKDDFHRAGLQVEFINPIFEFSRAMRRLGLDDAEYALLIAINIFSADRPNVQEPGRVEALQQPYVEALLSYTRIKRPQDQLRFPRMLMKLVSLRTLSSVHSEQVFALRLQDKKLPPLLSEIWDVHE

Turning to `CC[C@@]1(O)CCCN(C(=O)CC[C@@H](C)[C@H]2CC[C@H]3[C@@H]4CC=C5C[C@@H](O)CC[C@]5(C)[C@H]4CC[C@]23C)C1` [Example 106, (4R)-1-(3-ethyl-3-hydroxypiperidin-1-yl)-4-((3S,8S,9S,10R,13R,14S,17R)-3-hydroxy-10,13-dimethyl-2,3,4,7,8,9,10,11,12,13,14,15,16,17-tetradecahydro-1H-cyclopenta[a]phenanthren-17-yl)pentan-1-one], the IC50 – broadly, the concentration needed to halve the response being measured – on SREBP-2 is under 250 nM. For the same compound, the EC50 on LXRβ was 250 to 1000 nM.

On SREBP-2, `C[C@H](CCC(=O)N1CCC(C(C)(C)O)CC1)[C@H]1CC[C@H]2[C@@H]3CC=C4C[C@@H](O)CC[C@]4(C)[C@H]3CC[C@]12C` [Example 378, (R)-4-((3S,8S,9S,10R,13R,14S,17R)-3-hydroxy-10,13-dimethyl-2,3,4,7,8,9,10,11,12,13,14,15,16,17-tetradecahydro-1H-cyclopenta[a]phenanthren-17-yl)-1-(4-(2-hydroxypropan-2-yl)piperidin-1-yl)pentan-1-one] displayed an IC50 of under 250 nM. Further, the EC50 at LXRβ was over 10000 nM.

The compound `C[C@H](CCC(=O)N1CCC(C)(C)CC1)[C@H]1CC[C@H]2[C@@H]3CC=C4C[C@@H](O)CC[C@]4(C)[C@H]3CC[C@]12C` [Example 5, (R)-1-(4,4-dimethylpiperidin-1-yl)-4-((3S,8S,9S,10R,13R,14S,17R)-3-hydroxy-10,13-dimethyl-2,3,4,7,8,9,10,11,12,13,14,15,16,17-tetradecahydro-1H-cyclopenta[a]phenanthren-17-yl)pentan-1-one] gave an IC50 against SREBP-2 of under 250 nM. At LXRβ, the EC50 fell in the range of 1000 to 10000 nM.

Turning to `C[C@H](CCC(=O)N1CCN(C(=O)N(C)CC2CC2)[C@@H](C)C1)[C@H]1CC[C@H]2[C@@H]3CC=C4C[C@@H](O)CC[C@]4(C)[C@H]3CC[C@]12C` [Example 636, (S)—N-(cyclopropylmethyl)-4-((R)-4-((3S,8S,9S,10R,13R,14S,17R)-3-hydroxy-10,13-dimethyl-2,3,4,7,8,9,10,11,12,13,14,15,16,17-tetradecahydro-1H-cyclopenta[a]phenanthren-17-yl)pentanoyl)-N,2-dimethylpiperazine-1-carboxamide], at SREBP-2, the IC50 is under 250 nM. For the same compound, on LXRβ, the EC50 was over 10000 nM.

In turn, `CON(C(=O)CC[C@@H](C)[C@H]1CC[C@H]2[C@@H]3CC=C4C[C@@H](O)CC[C@]4(C)[C@H]3CC[C@]12C)[C@H](C)CO` [Example 71, (R)-4-((3S,8S,9S,10R,13R,14S,17R)-3-hydroxy-10,13-dimethyl-2,3,4,7,8,9,10,11,12,13,14,15,16,17-tetradecahydro-1H-cyclopenta[a]phenanthren-17-yl)-N—((R)-1-hydroxypropan-2-yl)-N-methoxypentanamide] had a concentration for half-maximal inhibition (IC50) against SREBP-2 of 250 to 1000 nM. Besides, the EC50 on LXRβ was 250 to 1000 nM.

On to `Cc1cc(N2CCN(C(=O)CC[C@@H](C)[C@H]3CC[C@H]4[C@@H]5CC=C6C[C@@H](O)CC[C@]6(C)[C@H]5CC[C@]34C)CC2)ncn1` [Example 206, (4R)-4-[(1R,3aS,3bS,7S,9aR,9bS,11aR)-7-hydroxy-9a,11a-dimethyl-1H,2H,3H,3aH,3bH,4H,6H,7H,8H,9H,9aH,9bH,10H,11H,11aH-cyclopenta[a]phenanthren-1-yl]-1-[4-(6-methylpyrimidin-4-yl)piperazin-1-yl]pentan-1-one], for which the IC50 against SREBP-2 was under 250 nM. In addition, the EC50 at LXRβ was over 10000 nM.

`CNC(=O)c1ccc(OC[C@@H](C)[C@H]2CC[C@H]3[C@@H]4CC=C5C[C@@H](O)CC[C@]5(C)[C@H]4CC[C@]23C)nc1` [Example 255, 6-((S)-2-((3S,8S,9S,10R,13S,14S,17R)-3-hydroxy-10,13-dimethyl-2,3,4,7,8,9,10,11,12,13,14,15,16,17-tetradecahydro-1H-cyclopenta[a]phenanthren-17-yl)propoxy)-N-methylnicotinamide] came in with an IC50 on SREBP-2 of under 250 nM. The EC50 on LXRβ was over 10000 nM.

Compound `C[C@H](CCC(=O)N1CCN(C(=O)c2ccncc2)[C@@H](C)C1)[C@H]1CC[C@H]2[C@@H]3CC=C4C[C@@H](O)CC[C@]4(C)[C@H]3CC[C@]12C` [Example 577, (R)-4-((3S,8S,9S,10R,13R,14S,17R)-3-hydroxy-10,13-dimethyl-2,3,4,7,8,9,10,11,12,13,14,15,16,17-tetradecahydro-1H-cyclopenta[a]phenanthren-17-yl)-1-((S)-4-isonicotinoyl-3-methylpiperazin-1-yl)pentan-1-one] displayed an IC50 on SREBP-2 of under 250 nM. Moreover, on LXRβ, the EC50 is over 10000 nM.

For the compound `C[C@H](COC(=O)N(C)CCO)[C@H]1CC[C@H]2[C@@H]3CC=C4C[C@@H](O)CC[C@]4(C)[C@H]3CC[C@]12C` [Example 350, (2S)-2-[(1R,3aS,3bS,7S,9aR,9bS,11aS)-7-hydroxy-9a,11a-dimethyl-1H,2H,3H,3aH,3bH,4H,6H,7H,8H,9H,9aH,9bH,10H,11H,11aH-cyclopenta[a]phenanthren-1-yl]propyl N-(2-hydroxyethyl)-N-methylcarbamate], on SREBP-2, the IC50 was in the range of 250 to 1000 nM. For the same compound, on LXRβ, the EC50 is over 10000 nM.

At SREBP-2, `C[C@H](CCC(=O)N1CCC(N(C)S(C)(=O)=O)CC1)[C@H]1CC[C@H]2[C@@H]3CC=C4C[C@@H](O)CC[C@]4(C)[C@H]3CC[C@]12C` [Example 289, N-{1-[(4R)-4-[(1R,3aS,3bS,7S,9aR,9bS,11aR)-7-hydroxy-9a,11a-dimethyl-1H,2H,3H,3aH,3bH,4H,6H,7H,8H,9H,9aH,9bH,10H,11H,11aH-cyclopenta[a]phenanthren-1-yl]pentanoyl]piperidin-4-yl}-N-methylmethanesulfonamide] registered an IC50 of 250 to 1000 nM. Besides, the EC50 at LXRβ is over 10000 nM.

`C[C@H](CCC(=O)N1CCN(C(=O)c2ccn(C)n2)CC1)[C@H]1CC[C@H]2[C@@H]3CC=C4C[C@@H](O)CC[C@]4(C)[C@H]3CC[C@]12C` [Example 539, (4R)-4-[(1R,3aS,3bS,7S,9aR,9bS,11aR)-7-hydroxy-9a,11a-dimethyl-1H,2H,3H,3aH,3bH,4H,6H,7H,8H,9H,9aH,9bH,10H,11H,11aH-cyclopenta[a]phenanthren-1-yl]-1-[4-(1-methyl-1H-pyrazole-3-carbonyl)piperazin-1-yl]pentan-1-one]: on SREBP-2, the IC50 was under 250 nM. Further, the EC50 at LXRβ is over 10000 nM.

Compound `CC(=O)NC1CCN(C(=O)CC[C@@H](C)[C@H]2CC[C@H]3[C@@H]4CC=C5C[C@@H](O)CC[C@]5(C)[C@H]4CC[C@]23C)CC1` [Example 320, N-(1-((R)-4-((3S,8S,9S,10R,13R,14S,17R)-3-hydroxy-10,13-dimethyl-2,3,4,7,8,9,10,11,12,13,14,15,16,17-tetradecahydro-1H-cyclopenta[a]phenanthren-17-yl)pentanoyl)piperidin-4-yl)acetamide] gave an IC50 against SREBP-2 of under 250 nM. Moreover, on LXRβ, the EC50 was over 10000 nM.

On SREBP-2, `C[C@H](CCc1cscn1)[C@H]1CC[C@H]2[C@@H]3CC=C4C[C@@H](O)CC[C@]4(C)[C@H]3CC[C@]12C` [Example 175, (1R,3aS,3bS,7S,9aR,9bS,11aR)-9a,11a-dimethyl-1-[(2R)-4-(1,3-thiazol-4-yl)butan-2-yl]-1H,2H,3H,3aH,3bH,4H,6H,7H,8H,9H,9aH,9bH,10H,11H,11aH-cyclopenta[a]phenanthren-7-ol] yielded an IC50 of under 250 nM. On LXRβ, the EC50 lay within 1000 to 10000 nM.

As to `CC(=O)N[C@H]1CCN(C(=O)CC[C@@H](C)[C@H]2CC[C@H]3[C@@H]4CC=C5C[C@@H](O)CC[C@]5(C)[C@H]4CC[C@]23C)C1` [Example 322, N—((S)-1-((R)-4-((3S,8S,9S,10R,13R,14S,17R)-3-hydroxy-10,13-dimethyl-2,3,4,7,8,9,10,11,12,13,14,15,16,17-tetradecahydro-1H-cyclopenta[a]phenanthren-17-yl)pentanoyl)pyrrolidin-3-yl)acetamide], the IC50 at SREBP-2 is under 250 nM. In addition, the EC50 at LXRβ was over 10000 nM.

In turn, `CC(=O)N(C)[C@H]1CCN(C(=O)CC[C@@H](C)[C@H]2CC[C@H]3[C@@H]4CC=C5C[C@@H](O)CC[C@]5(C)[C@H]4CC[C@]23C)C1` [Example 321, N—((S)-1-((R)-4-((3S,8S,9S,10R,13R,14S,17R)-3-hydroxy-10,13-dimethyl-2,3,4,7,8,9,10,11,12,13,14,15,16,17-tetradecahydro-1H-cyclopenta[a]phenanthren-17-yl)pentanoyl)pyrrolidin-3-yl)-N-methylacetamide] registered an IC50 at SREBP-2 of under 250 nM. For the same compound, the EC50 at LXRβ is over 10000 nM.

In turn, `CCCN(OC)C(=O)CC[C@@H](C)[C@H]1CC[C@H]2[C@@H]3CC=C4C[C@@H](O)CC[C@]4(C)[C@H]3CC[C@]12C` [Example 13, (R)-4-((3S,8S,9S,10R,13R,14S,17R)-3-hydroxy-10,13-dimethyl-2,3,4,7,8,9,10,11,12,13,14,15,16,17-tetradecahydro-1H-cyclopenta[a]phenanthren-17-yl)-N-methoxy-N-propylpentanamide] had an IC50 against SREBP-2 of under 250 nM. On LXRβ, the EC50 is 250 to 1000 nM.

The compound `CC(O)c1cccnc1CC[C@@H](C)[C@H]1CC[C@H]2[C@@H]3CC=C4C[C@@H](O)CC[C@]4(C)[C@H]3CC[C@]12C` (stereo partly drawn) [Example 249, (3S,8S,9S,10R,13R,14S,17R)-17-((2R)-4-(3-(1-hydroxyethyl)pyridin-2-yl)butan-2-yl)-10,13-dimethyl-2,3,4,7,8,9,10,11,12,13,14,15,16,17-tetradecahydro-1H-cyclopenta[a]phenanthren-3-ol] had an IC50 against SREBP-2 of under 250 nM. The EC50 at LXRβ was under 250 nM.

Compound `COc1ncnc(N2CCN(C(=O)CC[C@@H](C)[C@H]3CC[C@H]4[C@@H]5CC=C6C[C@@H](O)CC[C@]6(C)[C@H]5CC[C@]34C)CC2)c1OC` [Example 618, (R)-1-(4-(5,6-dimethoxypyrimidin-4-yl)piperazin-1-yl)-4-((3S,8S,9S,10R,13R,14S,17R)-3-hydroxy-10,13-dimethyl-2,3,4,7,8,9,10,11,12,13,14,15,16,17-tetradecahydro-1H-cyclopenta[a]phenanthren-17-yl)pentan-1-one] returned an IC50 against SREBP-2 of under 250 nM. At LXRβ, the EC50 was over 10000 nM.
